Experimental data as given in US20070141581A1, “Membrane androgen receptor as a therapeutic target for the prevention/promotion of cell death” (University of North Texas Health Science Center at Fort …, priority 2005, published 2007).

Columns and labels:
Akt = Akt phosphorylation in C6 glial cells (Western blot); format: cell-based, Rat
Protocol: (§1) Materials and Methods. Cell culture. Rat glioma cells (C6; American Type Culture Collection, Manassas, Va.) were propagated in Dulbecco's Modified Eagle Medium (DMEM; Invitrogen, Carlsbad, Calif.) supplemented with 10% charcoal-stripped fetal bovine serum (FBS; Hyclone, Logan, Utah), and maintained at 37° C. in a humidified environment containing 5% CO2.
(§2) Treatment of cultures. C6 glial cells were treated with either vehicle control (DMSO, 0.1%), dihydrotestosterone (DHT) (Steraloids Inc., Newport, R.I.), or 5α-androstan-17β-ol-3-one-3-o-carboxymethyloxime:BSA (DHT-BSA) (Steraloids Inc.) at the concentrations indicated for 30 minutes, to assess the effects of these hormones on ERK and Akt phosphorylation. […] Inhibition of the classical androgen receptor was achieved using the androgen receptor antagonist, Flutamide (3 μM; Sigma-Aldrich, St. Louis, Mo.), which was applied 30 minutes prior to treatment with the hormone. Inhibition of MEK, the signaling protein upstream of ERK was achieved using U0126 (10 μM; Cell Signaling, Beverly, Mass.), also pre-incubated for a period of 30 minutes prior to hormone administration.
(§3) Western blot analysis. Following treatment with hormone and/or inhibitor, C6 glial cells were harvested into lysis buffer containing protease and phosphatase inhibitors as described previously (25). Following homogenization, samples were centrifuged at 99,000×g for 15 min at 4° C., and the resulting supernatants were evaluated for total protein concentrations using the BioRad DC (Biorad Labs, Hercules, Calif.) protein assay kit [based on the method of Lowry; (26)]. Sample lysates were loaded onto a sodium dodecyl sulfate (SDS), 10% polyacrylamide gel (PAGE), subjected to electrophoresis, and subsequently transferred onto a polyvinylidene difluoride membrane (PVDF; 0.22 μm pore size, BioRad). The membrane was blocked for 6 hrs with a 3% BSA in 0.2% Tween-containing TBS (TBS-T) solution prior to application of the primary antibody. The following primary antibodies were used: for the detection of the androgen receptor, anti-AR (C-19) (1:200; Santa Cruz Biotechnology); for the detection of the phosphorylated form of Akt: rabbit anti-phospho-Akt (Ser473; 1:1000; Cell Signaling, Beverly, Mass.), for the detection of total Akt, anti Akt (1:1000; Cell Signaling); for the detection of the phosphorylated form of ERK1/2, rabbit anti phospho-p44/42 Map Kinase (Thr202/Tyr204, 1:1000; Cell Signaling); for the detection of total ERK1 and ERK2, goat anti-ERK1 (C-16, 1:500)/goat anti-ERK2 (C-14, 1:500; Santa Cruz Biotechnology). Antibody binding to the membrane was detected using a secondary antibody (either goat anti-rabbit or rabbit anti-goat) conjugated to horseradish peroxidase (1:20,000; Pierce, Rockford, Ill.) and visualized using enzyme-linked chemiluminescence (ECL, Amersham, Arlington Heights, Ill.) with the aid of the UVP imaging system. Phospho-Akt and phosphoERK blots were re-probed with anti-Akt or anti ERK1/2 antibodies to ensure equal loading across lanes.
(§4) Statistical Analysis. Densitometric analysis of the Western blots was conducted using the LabWorks Image Acquisition and Analysis Software (UVP Inc., Upland, Calif.). Densitometric data from at least three independent studies was subjected to an analysis of variance (ANOVA), followed by a Tukey's post hoc analysis for the assessment of group differences, and presented as a bar graph depicting the average±S.E.M., using the GraphPad Software (San Diego, Calif.).

[1] = system: hippocampal neuron damage; details: kainic acid model, reference 33; cited from earlier work
ERK = ERK phosphorylation in C6 glial cells (Western blot); format: cell-based, Rat
Protocol: as §1, §2, §3, §4

[2] = system: membrane-associated androgen receptor; experiment: Flow cytometry binding of DHT-BSA-FITC to the cell surface of live C6 glial cells; parameters: species or system Rat; details: 20-fold molar excess of DHT (1 mM) vs DHT-BSA-FITC 50 μM
Protocol: Flow cytometry. Briefly, C6 glial cells (10^6 cells) were pipetted into a 1.5 ml micro-centrifuge tube, centrifuged at 250×g for 5 minutes and washed twice with 1 ml of PBS. […] In parallel, cells were re-suspended in PBS treated with BSA-FITC (50 μM; Sigma Aldrich), serving as the control for the detection of “non-specific binding”. Following this incubation period, the cells were washed twice in PBS and resuspended in 500 μl of PBS. The labeled C6 glial cells were injected into an EPICS XL-MCL flow cytometer (Beckman Coulter) and analyzed with System 2 software (Beckman Coulter).
In order to determine if DHT-BSA binds to a specific site on the cell surface (indicative of a membrane-associated androgen receptor), the binding of the fluorescently-labeled DHT-BSA (DHT-BSA-FITC) in C6 glial cells was evaluated. Non-“fixed” and non-permeabilized C6 glial cells were treated with DHT-BSA-FITC (50 μM) in the presence or absence of 20-fold molar excess of DHT (1 mM). Incubation of the cells with BSA-FITC alone for 30 min at 4° C. provided a measure of non-specific binding.
To determine if DHT-BSA binds to surface (plasma membrane) receptors, C6 glial cells were treated with DHT-BSA-FITC (50 μM) for 30 min. in the presence/absence of a 20-fold molar excess of DHT (1 mM). Samples were washed and analyzed using flow cytometric analysis.

C6 glial cells = experiment: LDH release / iodoacetic acid (IAA) induced cell death of C6 glial cells; format: cell-based, Rat
Protocol: Triton-X (Tr-X, 0.9%)-induced lysis of cells served as the positive control for LDH release. Estradiol (E2, 10 μM) treatment of cells served as the positive control for protection against IAA-induced LDH release. Data are representative of two independent studies. The effect shown in FIG. 10, is in sharp contrast to the protective effect of DHT reported previously, and supports further the observation that two, potentially competing, mechanisms regulate the effects of androgens on cell viability. In all studies that used the membrane impermeable androgen, the DHT-BSA preparation was filtered using a 10 kDa nominal cut-off column prior to application of this steroid hormone conjugate, to ensure that the effects of DHT-BSA were not attributed to, or confounded by the presence of free (unconjugated) DHT. Stevis, et al., (Stevis P E, Deecher D C, Suhadolnik L, Mallis L M, Frail D E 1999 Differential effects of estradiol and estradiol-BSA conjugates. Endocrinology 140:5455-8) have described that the commercially available preparation of estradiol-conjugated to BSA (E2-BSA), for example, was contaminated with some free estradiol.

CC(C)C(=O)Nc1ccc([N+](=O)[O-])c(C(F)(F)F)c1 [Flutamide]
effect of AR antagonist on DHT-induced Akt phosphorylation (Akt; Flutamide 3 μM): failed to inhibit

C[C@]12CCC(=O)C[C@@H]1CC[C@@H]1[C@@H]2CC[C@]2(C)[C@@H](O)CC[C@@H]12 [DHT, dihydrotestosterone]
amount of hippocampal neuron damage [1]: reduce the amount of hippocampal neuron damage | ERK phosphorylation at higher concentrations (ERK): did not result in an increase in ERK phosphorylation | increase in the phosphorylation of ERK (ERK): 2.5 fold | displacement of DHT-BSA-FITC labeling [2]: displaced | Akt phosphorylation (phospho-Akt levels) (Akt): induced an increase in Akt phosphorylation

N#CC(=C(/N)Sc1ccccc1N)/C(C#N)=C(\N)Sc1ccccc1N [U0126]
effect of MEK1/2 inhibitor on DHT-induced ERK phosphorylation (ERK): blocked

Pertussis toxin
effect of Gi/o inhibitor on DHT-BSA-mediated suppression of ERK phosphorylation (ERK; 50 μM, data not shown): failed to prevent | effect of Gi/o inhibitor on DHT-BSA-mediated suppression of Akt phosphorylation (Akt; 50 μM, data not shown): failed to prevent

5α-androstan-17β-ol-3-one-3-o-carboxymethyloxime:BSA [DHT-BSA]
ERK phosphorylation (phospho-ERK levels relative to sham control) (ERK; 0.01, 0.1, 1.0 μM, 30 min, particularly at 100 nM and 1 μM): substantial suppression of ERK phosphorylation | concentration at which the inhibitory effect on ERK phosphorylation becomes evident (ERK; 30 min, C6 glial cells): 0.1 µM | effect on DHT-induced ERK phosphorylation (ERK; co-applied with DHT 10 nM, 30 min, 0.01, 0.1, 1 μM, dose dependent): blocked the effect of DHT | cellular damage as assessed by LDH release into the media (C6 glial cells; increasing concentrations, alone): did not result in cellular damage | toxicity associated with IAA (LDH release) (C6 glial cells; with low level insult IAA 10 μM): significantly increased the toxicity associated with IAA | Akt phosphorylation (phospho-Akt levels relative to sham control) (Akt; 0.01, 0.1 and 1 μM, 30 min): dose-dependent suppression of Akt phosphorylation | concentration at which the inhibitory effect on Akt phosphorylation becomes evident (Akt; 30 min, C6 glial cells): 0.1 µM

C[C@]12CCC(=NOCC(=O)O)C[C@@H]1CC[C@@H]1[C@@H]2CC[C@]2(C)[C@@H](O)CC[C@@H]12 [DHT:CMO, 5α-androstan-17β-ol-3-one-3-o-carboxymethyloxime]
ERK phosphorylation by CMO-modified DHT (ERK; 0.01, 0.1, 1 μM, 30 min): did not alter the ability of the androgen to elicit ERK phosphorylation
